Results on 5 compounds are retold here after patent publication US9365721B2, “Polycyclo dyes and use thereof” (VISEN MEDICAL, INC., priority 2007, dated 2016).

A short description of series [1]: Fluorescence emission maximum (Em. max) of the fluorochrome in solvent. In kind it is physicochemical.
The nature of series [2]: Absorption maximum (Abs. max) of the fluorochrome in solvent. The format is physicochemical.

Molecules are shown by their SMILES.

Turning to `CN1C2CCC1/C(=C\C=C1\N(CCCCS(=O)(=O)O)c3ccccc3C1(C)C)C(SCCC(=O)O)=C2/C=C/C1=[N+](CCCCS(=O)(=O)O)c2ccccc2C1(C)C` (centres unmarked) [Compound 12], the Em. max in series [1] (MeOH) was found to be 810 nm; in series [1] (water) it was 787 nm. The Abs. max in series [2] (MeOH) turned out to be 780 nm; in series [2] (water), 768 nm.
On the same counts, the results for `CCN1/C(=C/C=C2C(Cl)=C(/C=C/C3=[N+](CC)c4ccc5c(S(=O)(=O)O)cc(S(=O)(=O)O)cc5c4C3(C)C)C3CCC/2N3C)C(C)(C)c2c1ccc1c(S(=O)(=O)O)cc(S(=O)(=O)O)cc21` (centres unmarked) [Compound 38] are 835 nm, 827 nm, 814 nm and 805 nm.
In the same order, the values of `CN1C2CCC1/C(=C\C=C1\N(CCCS(=O)(=O)O)c3ccc(S(=O)(=O)O)cc3C1(C)C)C(Cl)=C2/C=C/C1=[N+](CCCS(=O)(=O)O)c2ccc(S(=O)(=O)O)cc2C1(C)C` (centres unmarked) [Compound 39] are 802 nm, 788 nm, 780 nm and 768 nm.
In the case of `CN1C2CCC1/C(=C\C=C1\N(CCCS(=O)(=O)O)c3ccc(S(=O)(=O)O)cc3C1(C)C)C(SCCC(=O)O)=C2/C=C/C1=[N+](CCCS(=O)(=O)O)c2ccc(S(=O)(=O)O)cc2C1(C)C` (centres unmarked) [Compound 13], the Em. max in series [1] (MeOH) is recorded as 810 nm; in series [1] (water), 797 nm. Also, the Abs. max is on record as 788 nm in series [2] (MeOH) and 777 nm in series [2] (water).
On the same counts, the results for `CN1C2CCC1/C(=C\C=C1\N(CCCCS(=O)(=O)O)c3ccccc3C1(C)C)C(Cl)=C2/C=C/C1=[N+](CCCCS(=O)(=O)O)c2ccccc2C1(C)C` (centres unmarked) [Compound 11] are 790 nm, 775 nm, 770 nm and 760 nm.
